Reference: the NIST ThermoML archive (doi:10.1016/j.jct.2011.02.018)

Assay: xn = mol fraction of the nth substance listed
Settings: 101 kPa, Liquid; for viscosity: Concentric cylinders viscometry; for mass density: Vibrating tube method

COC(C)(C)C [2-methoxy-2-methylpropane] + CC(C)O
Settings | mass density, 303.15 K [kg/m3] | mass density, 308.15 K [kg/m3] | viscosity, 303.15 K [mPa·s] | viscosity, 308.15 K [mPa·s]
x1 = 0.0093 | 776.34 | 771.97 | 1.716 | 1.488
x1 = 0.0206 | 775.62 | 771.24 | 1.661 | 1.444
x1 = 0.0305 | 775.01 | 770.65 | 1.606 | 1.399
x1 = 0.0398 | 774.43 | 770.06 | 1.547 | 1.35
x1 = 0.0499 | 773.82 | 769.37 | 1.496 | 1.307
x1 = 0.0601 | 773.15 | 768.84 | 1.443 | 1.264
x1 = 0.0702 | 772.55 | 768.22 | 1.395 | 1.226
x1 = 0.0799 | 772 | 767.62 | 1.348 | 1.186
x1 = 0.0914 | 771.45 | 766.96 | 1.299 | 1.145
x1 = 0.1009 | 770.89 | 766.39 | 1.26 | 1.112
x1 = 0.1493 | 768.12 | 763.55 | 1.093 | 0.9806
x1 = 0.2014 | 765.24 | 760.59 | 0.9479 | 0.8473
x1 = 0.244 | 762.82 | 758.12 | 0.8652 | 0.7741
x1 = 0.2863 | 760.69 | 755.94 | 0.7635 | 0.6933
x1 = 0.3081 | 759.55 | 754.77 | 0.7251 | 0.6588
x1 = 0.351 | 757.3 | 752.47 | 0.6639 | 0.6054
x1 = 0.3995 | 754.91 | 750.02 | 0.6057 | 0.5521
x1 = 0.4516 | 752.43 | 747.48 | 0.5514 | 0.501
x1 = 0.4999 | 750.22 | 745.22 | 0.5139 | 0.4673
x1 = 0.5497 | 748.01 | 742.97 | 0.4738 | 0.4345
x1 = 0.5994 | 745.87 | 740.79 | 0.4395 | 0.4032
x1 = 0.6493 | 743.75 | 738.63 | 0.4129 | 0.3822
x1 = 0.6993 | 741.69 | 736.5 | 0.3938 | 0.3678
x1 = 0.7499 | 739.62 | 734.4 | 0.3695 | 0.3487
x1 = 0.8015 | 737.6 | 732.34 | 0.352 | 0.3323
x1 = 0.8509 | 735.7 | 730.41 | 0.3397 | 0.3136
x1 = 0.8997 | 733.84 | 728.52 | 0.3193 | 0.303
x1 = 0.9089 | 733.49 | 728.17 | 0.3254 | 0.298
x1 = 0.9191 | 733.11 | 727.78 | 0.3152 | 0.2968
x1 = 0.9294 | 732.74 | 727.41 | 0.3121 | 0.2986
x1 = 0.9401 | 732.34 | 727.01 | 0.307 | 0.293
x1 = 0.9512 | 731.91 | 726.58 | 0.3045 | 0.2959
x1 = 0.9587 | 731.64 | 726.3 | 0.3021 | 0.2906
x1 = 0.97 | 731.24 | 725.88 | 0.302 | 0.2819
x1 = 0.9777 | 730.94 | 725.59 | 0.2983 | 0.2804
x1 = 0.9897 | 730.5 | 725.16 | 0.2943 | 0.283
